Measured values taken from patent publication US8546426B2, “N-aminotetrahydroisoquinolines as anti-cancer agents” (Florida A&M University Board of Trustees, priority 2011, dated 2013).
Converted amounts (≈) assume the structure as drawn.

Experiments:
Type in all cases: cell-based
[1] = tested on: MCF-7 estrogen receptor-positive breast cancer cells; test: […]-GLO luminescent cell viability assay, MCF-7; settings: Homo sapiens, MCF7, MCF-7 cells, 5000 cells/well, 72 h at 37° C.
Experimental: (§1) All the compounds are tested in three cell lines. Different concentration of compounds, ranging from about 0.01 nM to about 100,000 nM were delivered to 5×10^3 cells per well, which were then incubated for three days at 37° C., followed by CTG assay.
(§2) In this assay, the number of viable cells in culture is determined based on the quantification of ATP present, which signals the presence of metabolically active cells. Damaged cells are not detected as the ATP leaked from these cells is quickly consumed by ATPases that are also released upon damage). The amount of ATP is determined using a system based on luciferase and D-luciferin resulting in light generation.
(§3) The cell lines were plated in 13, 96 well plates at a density of 5000 cells/well in total volumes of 50 μL in phenol-red free medium and incubated for overnight.
(§4) 25 μL of 40 nM estradiol should be added to all appropriate wells on the plate. […] 25 μL of stocks (containing the compounds to be tested, DMSO and phenol-red free medium) were added to cells and medium already on plate. 50 μL of medium were added to media wells, and 50 μL of mix (contain 32 mL DMSO+768 mL phenol-red free medium) to all vehicle control wells.
(§5) Luminescence results were read on TriLux Luminometer. The luminescent signal is proportional to the number of active cells present in culture. […] As a consequence, the number of metabolically active cells can be directly derived from the luminescent signal using a specific calibration curve. Data were expressed as percentage of untreated control (i.e. treatment value-blank/vehicle value blank), mean±SE for three replications.

Ishikawa cells = test: […]-GLO luminescent cell viability assay, Ishikawa; settings: Homo sapiens, 5000 cells/well, 72 h at 37° C.
Experimental: as §1, §2, §3, §4, §5

[2] = tested on: MDA-MB-231 estrogen receptor-negative breast cancer cell line; test: […]-GLO luminescent cell viability assay, MDA-MB-231; settings: Homo sapiens, MDA-MB-231 cells, 5000 cells/well, 72 h at 37° C.
Experimental: as §1, §2, §3, §4, §5

Compound	IC50 [1]	IC50 [2]	IC50 (Ishikawa cells)
COc1ccc(S(=O)(=O)NN2CCc3ccccc3C2)cc1 [Redda-CM-3-13, N-(3,4-dihydroisoquinolin-2(1H)-yl)-4-methoxybenzenesulfonamide]	1.27 µg/mL (≈ 3.99 µM)	0.76 µg/mL (≈ 2.39 µM)	0.45 µg/mL (≈ 1.41 µM)
O=C(NN1CCc2ccccc2C1)c1ccccc1 [Redda-GM-3-15, N-(3,4-dihydroisoquinolin-2-(1H)-yl)benzamide]	0.63 µg/mL (≈ 2.5 µM)	0.74 µg/mL (≈ 2.93 µM)	0.23 µg/mL (≈ 0.912 µM)
O=C(NN1CCc2ccccc2C1)c1ccc(Cl)cc1 [Redda-GM-3-18, 4-chloro-N-(3,4-dihydroisoquinolin-2(1H)-yl)bemamide]	0.71 µg/mL (≈ 2.48 µM)	0.8 µg/mL (≈ 2.79 µM)	0.61 µg/mL (≈ 2.13 µM)

More lines, main results first:

IC50 [1]	IC50 [2]	Compound	IC50 (Ishikawa cells)
0.93 µg/mL (≈ 3.29 µM)	0.78 µg/mL (≈ 2.76 µM)	COc1ccc(C(=O)NN2CCc3ccccc3C2)cc1 [Redda-GM-3-16, N-(3,4-dihydroisoquinolin-2(1H)-yl)-4-methoxybenzamide]	0.21 µg/mL (≈ 0.744 µM)
0.7 µg/mL (≈ 2.63 µM)	1.02 µg/mL (≈ 3.83 µM)	Cc1ccc(C(=O)NN2CCc3ccccc3C2)cc1 [Redda-GM-3-19]	0.44 µg/mL (≈ 1.65 µM)
